Measurements published in publication PMC7759402 (Journal of Analytical Methods in Chemistry, 2020).

Legend:
[1] = test system: pancreatic ductal adenocarcinoma xenograft; conditions: combination therapy of VS-5584 with ERK inhibitor SCH772984; cited from earlier work
[2] = Stability of VS-5584 in rat plasma (QC samples, UPLC-MS/MS); type: in vitro ADME; conditions: for Stability RE (%): n = 3
Method: Quality control (QC) samples were prepared at LLOQ, low, medium, and high concentrations (1.0, 2.0, 200, and 800 ng/mL) separately in the same manner. The IS working solution was prepared in acetonitrile at a concentration of 40 ng/mL.
Stability studies were conducted under a variety of different conditions. The accuracy and precision under the above conditions should be within ±15%.

Structure (SMILES)	tumor suppression rate [1] [%]	stability of processed samples (in words) ([2]; 4°C in an autosampler for 12 h)	Stability RE (%) ([2]; processed samples, 4°C in autosampler for 12 h, spiked 2.0 ng/mL)	Stability RE (%) ([2]; processed samples, 4°C in autosampler for 12 h, spiked 200 ng/mL)	Stability RE (%) ([2]; processed samples, 4°C in autosampler for 12 h, spiked 800 ng/mL)	Stability RE (%) ([2]; rat plasma, 12 h at room temperature, spiked 2.0 ng/mL)	Stability RE (%) ([2]; rat plasma, 12 h at room temperature, spiked 200 ng/mL)	Stability RE (%) ([2]; rat plasma, 12 h at room temperature, spiked 800 ng/mL)	Stability RE (%) ([2]; rat plasma, 30 days at −25°C, spiked 2.0 ng/mL)	Stability RE (%) ([2]; rat plasma, 30 days at −25°C, spiked 200 ng/mL)	Stability RE (%) ([2]; rat plasma, 30 days at −25°C, spiked 800 ng/mL)	Stability RE (%) ([2]; rat plasma, three freeze–thaw cycles, spiked 2.0 ng/mL)	Stability RE (%) ([2]; rat plasma, three freeze–thaw cycles, spiked 200 ng/mL)	Stability RE (%) ([2]; rat plasma, three freeze–thaw cycles, spiked 800 ng/mL)	stability in rat plasma (in words) ([2]; −25°C for 30 days, room temperature for 12 h, three freeze-thaw cycles)
O=C(Nc1ccc2[nH]nc(-c3ccncc3)c2c1)[C@@H]1CCN(CC(=O)N2CCN(c3ccc(-c4ncccn4)cc3)CC2)C1 [SCH772984]	80														
Cc1nc2c(-c3cnc(N)nc3)nc(N3CCOCC3)nc2n1C(C)C [VS-5584]		remained intact	−8.7	10.4	9.9	−7.0	10.7	9.2	9.4	−12.2	−5.7	−6.5	−6.5	7.4	stable
